Results from paper PMC8845285, “Serotoninergic receptor ligands improve Tamoxifen effectiveness on breast cancer cells” (BMC Cancer, 2022).

Columns and labels:
[1] = target: T1, serotonin 5-HT2A receptor (Rattus norvegicus, UniProt P14842); test: radioligand binding assay, 5-HT2A, [3H]ketanserin; details: rat brain cortex; for Ki: read-out: Ki ± SD, 5-HT2A [3H]Ketanserin
T1 construct: serotonin 5-HT2A receptor, [^3H]ketanserin, rat brain cortex; from tissue; host or cells: rat brain cortex
Protocol: All reactions were monitored by TLC, carried out on Merck 60G F254 plates with fluorescent indicator and the plates were visualized with UV light (254 nm). Each final compound and intermediate was purified by silica gel column chromatography (Macherey-Nagel 60 0,063–0,2 mm/70–230 mesh). […] Unless otherwise stated, all spectra were recorded in CDCl3. Chemical shifts are reported in ppm using Me4Si as internal standard. The following abbreviations are used to describe peak patterns when appropriate: s (singlet), d (doublet), t (triplet), m (multiplet), q (quartet), qt (quintet), dd (double doublet), ddd (double dd), bs (broad singlet). Mass spectra of the final products were performed on LTQ Orbitrap XL™ Fourier transform mass spectrometer (FTMS) equipped with ESI ION MAX™ source (Thermo Fisher, San José, USA). Melting points were determined using a Buchi B-540 hot-stage instrument and are uncorrected. […] All the compounds were dissolved in 5% DMSO. The following specific radioligands and tissue sources were used: (a)serotonin 5-HT1A receptor, [^3H]-8-OH-DPAT, rat brain cortex; (b) serotonin 5-HT2A receptor, [^3H]ketanserin, rat brain cortex; (c)serotonin 5-HT2C receptor, [^3H]mesulergine, rat brain cortex. Non-specific binding was determined as described in the experimental section, and specific binding as the difference between total and non-specific binding. […] The IC50 values obtained were used to calculate apparent inhibition constants (Ki) by the method of Cheng and Prussoff, from the following equation: Ki = IC50/(1 + S/KD) where S represents the concentration of the hot ligand used and KD its receptor dissociation constant (KD values, obtained by Scatchard analysis, were calculated for each labeled ligand). Radioligand binding assays for 5-HT1A were performed following a published procedure. 5-HT2A and 5-HT2C binding assays were performed reported by Herndon et al..

SKBR3 cells = test: SKBR3 cell viability, sulforhodamine B assay; format: cell-based, human; details: for IC50: Homo sapiens, SK-BR-3, 72 h treatment
Protocol: MCF7 (ER^+, PR^+, HER2^−), SKBR3 (ER^−, PR^+, HER2^+) and MDA-MB231 (ER^−, PR^−, HER2^−) human BC cells and MCF10A non-cancer breast epithelial cells were available in our laboratory. MCF7, SKBR3 and MDA-MB231 cells were cultured in DMEM, supplemented with 10% FBS, 2 mM glutamine, 100 units/ml penicillin and 100 units/ml streptomycin. MCF10A cells were cultured in MEBM, supplemented with 0.4% BPE, 0.1% hEGF, 0.1%, Insulin, 0.1% Hydrocortisone and 0.1% GA-1000. […] Treatment with SER were carried out in culture conditions. Treatment with Tamoxifen and/or SER were carried out upon 48 h estrogen starvation in phenol-red free medium supplemented with 10% Charcoal Stripped (C/S) FBS, 2 mM glutamine, 100 units/ml penicillin and 100 units/ml streptomycin.
Cells were fixed with 50% trichloroacetic acid for at least 2 h at 4 °C, washed with distilled and de-ionized water, air-dryed and stained 30 min with 0.4% sulforhodamine B in 1% acetic acid. Unbound dye was removed and 10 mM tris-HCl solution (pH 7.5) was added to dissolve the protein-bound dye. Cell survival was assessed by optical density determination at 510 nm using a microplate reader.
Fig. 3 Effect of SER on SKBR3 cell viability. […] Cell viability was assessed, after 72 h, by sulforhodamine B assay (see Methods).

MCF10A cells = test: MCF10A non-cancer breast epithelial cell viability, sulforhodamine B assay; format: cell-based, human; details: 72 h
Protocol: MCF7 (ER^+, PR^+, HER2^−), SKBR3 (ER^−, PR^+, HER2^+) and MDA-MB231 (ER^−, PR^−, HER2^−) human BC cells and MCF10A non-cancer breast epithelial cells were available in our laboratory. MCF7, SKBR3 and MDA-MB231 cells were cultured in DMEM, supplemented with 10% FBS, 2 mM glutamine, 100 units/ml penicillin and 100 units/ml streptomycin. MCF10A cells were cultured in MEBM, supplemented with 0.4% BPE, 0.1% hEGF, 0.1%, Insulin, 0.1% Hydrocortisone and 0.1% GA-1000. Cultures were maintained in a humidified atmosphere of 95% air and 5% CO2 at 37 °C. Treatment with SER were carried out in culture conditions. […]
Cells were fixed with 50% trichloroacetic acid for at least 2 h at 4 °C, washed with distilled and de-ionized water, air-dryed and stained 30 min with 0.4% sulforhodamine B in 1% acetic acid. […] Cell survival was assessed by optical density determination at 510 nm using a microplate reader.
Fig. 7 Effect of low doses of SER79 and SER68 on MCF7 and MCF10A cells. a Estrogen-starved MCF7 cells (48 h) were treated with Tamoxifen (5 μM) in presence of E2 (100nM) and SER79 (5 μM) or SER68 (20 μM, 5 μM). […] After 72 h, cell viability was assessed by sulforhodamine B assay (see Methods). […] After 72 h, mRNA levels of CTGF were determined by qPCR (see Methods and Table 1). […] After 72 h, cell viability was assessed by sulforhodamine B assay (see Methods). […]

T1 sequence (P14842 whole entry): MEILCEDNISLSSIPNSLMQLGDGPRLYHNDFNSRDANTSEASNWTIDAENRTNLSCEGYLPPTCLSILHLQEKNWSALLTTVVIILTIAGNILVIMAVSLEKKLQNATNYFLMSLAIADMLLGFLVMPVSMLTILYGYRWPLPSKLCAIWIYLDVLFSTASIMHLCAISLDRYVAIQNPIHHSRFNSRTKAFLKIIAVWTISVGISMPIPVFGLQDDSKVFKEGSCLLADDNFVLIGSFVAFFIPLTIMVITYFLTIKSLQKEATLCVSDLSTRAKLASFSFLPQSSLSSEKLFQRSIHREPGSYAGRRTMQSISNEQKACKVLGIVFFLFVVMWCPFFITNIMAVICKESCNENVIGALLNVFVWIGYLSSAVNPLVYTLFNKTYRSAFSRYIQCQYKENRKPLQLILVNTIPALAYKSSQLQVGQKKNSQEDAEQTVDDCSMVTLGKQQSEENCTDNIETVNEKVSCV

Question: `N#CN=C(NCCCN1CCN(C(c2ccc(F)cc2)c2ccc(F)cc2)CC1)c1ccccn1` [SER79] was tested. Which “Ki ± SD, 5-HT2A [3H]Ketanserin” value [1] did it give?
Answer: weak

Question: And the Ki [1]?
Answer: 0.504 ± 0.0395 µM

Question: What about the “reduction of SKBR3 cell viability” value (SKBR3 cells; 50 μM, 72 h) of the same compound?
Answer: ≈ 50%

Question: What about the IC50 (SKBR3 cells) of the same compound?
Answer: 53.6 ± 10.4 µM

Question: And the “effect on MCF10A cell viability” value (MCF10A cells; 5 μM)?
Answer: No effect was detected on cell viability

Question: Which results are given for `O=C1C2C3C=CC(C3)C2C(=O)N1OCCN1CCN(c2ccc(Cl)c(Cl)c2)CC1` (centres unmarked) [SER68]?
Answer: Ki [1]: 0.153 ± 0.07 µM; IC50 (SKBR3 cells): 260 ± 94.9 µM; effect on MCF10A cell viability (MCF10A cells; 20 μM): No effect was detected on cell viability
